Experimental data taken from US5290576A, “Tert-butyloxycarbonyl-L-tyrosyl-peptidoglycan monomer and ^125 I-labeled derivative thereof, their preparation and use” (Pliva Farmaceutska, priority 1990, dated 1994).

How the values were obtained:
[1] = system: antibody-forming cells (plaque-forming cells, PFC) in the spleen of mice immunized with sheep erythrocytes (SRBC); assay: Immunostimulating activity: plaque-forming cells in spleen of mice immunized with sheep erythrocytes (Jerne's technique); format: in vivo; conditions: for PFC, % (of Hanks' control): 200 μg i.v. on day +1, PFC on day +4, Hanks' control = 100; for PFC, mean (X) / PFC, range of individual values: 200 μg i.v. on day +1 after SRBC i.p., PFC in spleen on day +4
Protocol: The immunostimulating activity of Boc-Tyr-PGM was tested in mice immunized with sheep erythrocytes (sheep red blood cells, SRBC).
Mice (CBA or AKR), five per group, were immunized i.p. with sheep erythrocytes (1×10^8 SRBC) in Hanks' solution. One day later (on day +1), the control group of mice receiving i.v. Hanks' solution, whereas the test group of mice was given i.v. 200 μg of Boc-Tyr-PGM in Hanks' solution. As positive control, a group of mice was used, to which 200 μg of peptidoglycan monomer (PGM) in Hanks' solution was administered i.v. Four days later (on day +4), the number of antibody-forming cells (plaque-forming cells, PFC) was determined in the spleen by Jerne's technique (Jerne, N. K., Nordin, A. A., and Henry, C. (1963), The agar plaque tecnique for recognizing antibody producing cells, in: "Cell Bound Antibodies", p. 109, Wistar Institute Press, Philadelphia).

melanoma B-16 = assay: Antitumor (antimetastatic) activity: lung metastases in mice inoculated with melanoma B-16; format: in vivo; conditions: for Inhibition % / Metastases %: counted on day 23; for Metastases %: Hanks' control = 100; for Number of metastases, mean (X): C57BL/6 mice, lung metastases counted on day 23
Protocol: The antitumor activity of Boc-Tyr-PGM was investigated in mice, inoculated with melanoma B-16.
Mice (C5 7 BL/6, male, 4 months old), five per group, were given i.v. each 1×10^5 cells of B-16 melanoma on day 0.
One group of mice was chosen as control and was not treated further in any manner. The mice in experimental groups were given i.v. each 1 mg of Boc-Tyr-PGM, according to the following protocol:
3rd group--days 3 and 7 (total 2 mg of Boc-Tyr-PGM)
Three mice groups, which received PGM (PLIVA) i.v. according to the same protocol, were chosen as the positive control.
Macroscopically detectable lung metastases were counted on day 23.

[2] = 1 mg i.v. on days 3 and 7 (total 2 mg)

Row | Substance | PFC, % (of Hanks' control) ([1]; AKR mice) [%] | PFC, mean (X) ([1]; AKR mice) | PFC, range of individual values ([1]; AKR mice) | PFC, % (of Hanks' control) ([1]; CBA mice) [%] | PFC, mean (X) ([1]; CBA mice) | PFC, range of individual values ([1]; CBA mice) | Inhibition % (melanoma B-16; 1 mg i.v. on day 3) [%] | Metastases % (melanoma B-16; 1 mg i.v. on day 3) [%] | Inhibition % (melanoma B-16; 1 mg i.v. on day 7) [%] | Metastases % (melanoma B-16; 1 mg i.v. on day 7) [%] | Inhibition % (melanoma B-16; [2]) [%] | Metastases % (melanoma B-16; [2]) [%] | Number of metastases, mean (X) (melanoma B-16; 1 mg i.v. on day 3) | Number of metastases, mean (X) (melanoma B-16; 1 mg i.v. on day 7) | Number of metastases, mean (X) (melanoma B-16; [2]) | increased number of PFC in comparison with the control group ([1]; both mice strains (CBA, AKR), 200 μg i.v.) | effectiveness compared with the positive control peptidoglycan monomer ([1]; both tests (CBA, AKR)) | inhibition rate of metastases, all treated mice groups (melanoma B-16; all treatment protocols (day 3, day 7, days 3 and 7)) | difference in inhibition rate between treatment periods and total doses (melanoma B-16; day 3 or 7, 1 mg on day 3 or total 2 mg on days 3 and 7) | antimetastatic effect compared with PGM (PLIVA) positive control (melanoma B-16; mouse, in vivo)
1 | GlcNAc-β-(1→4)MurNAc-L-Ala-D-iGln-[(L)-meso-A2 pm-(D)-amide-(L)-D-Ala-D-Ala] [PGM, reference compound] | 130 | 48,668 | 27,200-61,070 | 166 | 313,413 | 198,800-449,866 | 50.0 | 50.0 | 66.5 | 43.5 | 67.3 | 42.7 | 6.2 ± 4.4 | 5.4 ± 1.7 | 5.3 ± 1.7 |  |  |  |  | 
2 | tert-Butyloxycarbonyl-L-tyrosyl-peptidoglycan monomer [Boc-Tyr-PGM] | 150 | 55,974 | 31,730-68,670 | 157 | 295,866 | 257,600-304,266 | 38.7 | 61.3 | 41.9 | 58.1 | 43.6 | 56.4 | 7.6 ± 1.9 | 7.2 ± 4.0 | 7.0 ± 2.7 | approximately 50% | comparable with the effect of the positive control | 37.8%-43.6 | No significant difference in the inhibition rate | comparable to the effect of PGM (PLIVA)
